# Results taken from patent publication US20240382629A1, “HETEROBIVALENT AND HOMOBIVALENT AGENTS TARGETING FIBROBLAST ACTIVATION PROTEIN ALPHA AND/OR PROSTATE-SPECIFIC MEMBRANE ANTIGEN” (The Johns Hopkins University, priority 2021, published 2024).
# pIC50, pKi: −log10 of the molar value. “And” between values parts separate entries of the source, which are not always exact repeats. Identical values can stand only once.
# Experiments:
# FAP = FAP (Homo sapiens (Human), UniProt Q12884); assay: FAP inhibition assay (recombinant enzyme, Z-Gly-Pro-AMC substrate); type: biochemical; conditions: Table 3; for pKi: read-out: FAP Ki
# Experimental: (§1) PSMA binding affinities of the compounds were determined using a competitive inhibition assay as previously reported. […] FAP, prolyl endopeptidase (PREP), and […] (DPPIV) inhibition assays: Recombinant enzymes (FAP, PREP, DPPIV) were purchased from R&D Systems (Minneapolis, MN). […] Z-Gly-Pro-AMC was used as a substrate for FAP and PREP. H-Gly-Pro-AMC was used as a substrate for DPPIV. The recombinant enzyme (0.4 μg/mL) was incubated with varying amounts of the test articles in the presence of the designated substrate (80 μM) for 10 min at room temperature. Fluorescence intensity was measured with 380 nm excitation and 460 nm emission using the Cytation 5 Cell Imaging Multi-Mode Reader (BioTek, Winooski, VT). IC50 and Ki values were obtained using a sigmoidal dose-response function.
# PREP = PREP (Homo sapiens (Human), UniProt P48147); assay: PREP inhibition assay (recombinant enzyme, Z-Gly-Pro-AMC substrate); type: biochemical; conditions: Table 3
# Experimental: as §1
# DPPIV = DPPIV (Homo sapiens (Human), UniProt P27487); assay: DPPIV inhibition assay (recombinant enzyme, H-Gly-Pro-AMC substrate); type: biochemical; conditions: Table 3; read-out: DPPIV IC50
# Experimental: as §1
# [1] = Biodistribution of representative compounds (Example 13), % ID/g in tissues of tumor-bearing mice; type: in vivo, mouse; conditions: 60 min, 2 μCi per mouse
# [2] = Biodistribution of representative compounds ([^18F]Sri-07-56, [^18F]Sri-07-52, [^18F]JHU1221823, [^18F]FAPI-74), tissue % ID/g with carrier or blocker; type: in vivo, mouse
# Source text: Biodistribution of Representative Compounds
# Sequence of DPPIV (P27487 whole entry): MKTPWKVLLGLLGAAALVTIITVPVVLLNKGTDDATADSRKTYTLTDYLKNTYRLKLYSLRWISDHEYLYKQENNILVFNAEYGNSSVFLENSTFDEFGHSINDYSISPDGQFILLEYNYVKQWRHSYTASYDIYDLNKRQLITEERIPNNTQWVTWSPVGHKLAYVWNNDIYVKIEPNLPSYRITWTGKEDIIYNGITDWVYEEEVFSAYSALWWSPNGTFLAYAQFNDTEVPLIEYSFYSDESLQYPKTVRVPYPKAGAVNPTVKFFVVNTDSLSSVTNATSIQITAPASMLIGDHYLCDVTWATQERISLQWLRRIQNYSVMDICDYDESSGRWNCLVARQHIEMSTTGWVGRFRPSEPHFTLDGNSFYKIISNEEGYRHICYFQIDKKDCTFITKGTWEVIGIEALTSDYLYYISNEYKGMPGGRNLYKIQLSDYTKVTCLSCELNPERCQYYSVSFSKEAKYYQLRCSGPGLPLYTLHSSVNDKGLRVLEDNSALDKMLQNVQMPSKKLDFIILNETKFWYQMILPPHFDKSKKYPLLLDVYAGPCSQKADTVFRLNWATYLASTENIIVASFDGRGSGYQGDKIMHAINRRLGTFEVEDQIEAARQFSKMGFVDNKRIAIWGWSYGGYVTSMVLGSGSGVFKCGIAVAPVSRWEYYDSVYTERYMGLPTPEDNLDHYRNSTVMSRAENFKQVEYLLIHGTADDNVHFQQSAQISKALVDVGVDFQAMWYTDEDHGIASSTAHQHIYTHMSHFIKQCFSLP
# Sequence of FAP (Q12884 whole entry): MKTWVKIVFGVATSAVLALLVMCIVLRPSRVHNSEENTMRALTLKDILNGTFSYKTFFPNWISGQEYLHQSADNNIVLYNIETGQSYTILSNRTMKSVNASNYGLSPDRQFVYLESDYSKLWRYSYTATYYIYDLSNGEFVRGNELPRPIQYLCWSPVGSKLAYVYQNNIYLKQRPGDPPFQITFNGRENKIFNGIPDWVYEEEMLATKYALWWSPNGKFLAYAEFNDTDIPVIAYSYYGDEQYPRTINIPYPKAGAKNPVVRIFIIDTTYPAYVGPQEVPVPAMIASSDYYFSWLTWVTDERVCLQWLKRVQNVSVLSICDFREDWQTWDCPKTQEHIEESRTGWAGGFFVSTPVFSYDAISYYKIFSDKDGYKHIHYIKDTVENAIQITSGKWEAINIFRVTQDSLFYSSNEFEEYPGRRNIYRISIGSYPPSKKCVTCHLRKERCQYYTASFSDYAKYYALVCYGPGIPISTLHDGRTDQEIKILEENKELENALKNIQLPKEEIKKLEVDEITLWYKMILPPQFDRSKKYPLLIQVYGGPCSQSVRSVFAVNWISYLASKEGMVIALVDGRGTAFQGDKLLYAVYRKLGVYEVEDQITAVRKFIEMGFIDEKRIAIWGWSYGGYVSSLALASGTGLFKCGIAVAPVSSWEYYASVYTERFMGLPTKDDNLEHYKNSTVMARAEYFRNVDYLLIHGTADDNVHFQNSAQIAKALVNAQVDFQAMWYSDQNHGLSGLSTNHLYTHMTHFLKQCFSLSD
# Sequence of PREP (P48147 whole entry): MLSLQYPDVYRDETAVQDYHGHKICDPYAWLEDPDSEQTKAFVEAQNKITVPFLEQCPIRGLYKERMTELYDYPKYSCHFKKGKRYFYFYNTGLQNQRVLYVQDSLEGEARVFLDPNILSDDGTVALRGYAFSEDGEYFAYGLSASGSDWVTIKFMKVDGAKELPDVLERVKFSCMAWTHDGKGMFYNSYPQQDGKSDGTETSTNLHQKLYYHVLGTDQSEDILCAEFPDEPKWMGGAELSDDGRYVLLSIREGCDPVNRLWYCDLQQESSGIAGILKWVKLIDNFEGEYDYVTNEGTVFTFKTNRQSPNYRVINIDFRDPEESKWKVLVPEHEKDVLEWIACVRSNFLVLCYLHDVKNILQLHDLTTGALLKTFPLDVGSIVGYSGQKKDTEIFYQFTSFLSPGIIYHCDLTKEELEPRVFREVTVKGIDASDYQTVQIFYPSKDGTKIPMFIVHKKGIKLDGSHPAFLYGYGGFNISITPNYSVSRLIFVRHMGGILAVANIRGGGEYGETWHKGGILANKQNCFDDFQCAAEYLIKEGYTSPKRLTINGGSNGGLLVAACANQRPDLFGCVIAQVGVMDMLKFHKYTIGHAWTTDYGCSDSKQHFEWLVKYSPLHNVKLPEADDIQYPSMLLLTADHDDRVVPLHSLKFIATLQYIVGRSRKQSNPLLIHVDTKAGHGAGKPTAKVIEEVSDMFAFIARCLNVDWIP
compound,measurement,setting,value
N#C[C@@H]1CCCN1C(=O)CNC(=O)c1ccnc2cc(F)ccc12 [JHU1220501],pIC50,FAP,8.66
same,pKi,FAP,9.36
same,pIC50,PREP,6.28
same,pIC50,DPPIV,< 4.70
N#CC1CCCN1C(=O)CNC(=O)c1ccnc2ccc(OCCCNC(=O)CCc3cn(CCCC[C@H](NC(=O)CN4CCN(CC(=O)O)CCN(CC(=O)O)CC4)C(=O)NCCCOc4ccc5nccc(C(=O)NCC(=O)N6CCC[C@H]6C#N)c5c4)nn3)cc12 (stereo partly shown) [SB-FAP-09],pIC50,FAP,9.32
same,pKi,FAP,10.00
same,pIC50,PREP,6.20
same,pIC50,DPPIV,5.69
N#C[C@@H]1C[C@H](F)CN1C(=O)CNC(=O)c1ccnc2ccc(F)cc12 [JHU1220471],pIC50,FAP,9.13
same,pKi,FAP,9.83
same,pIC50,PREP,7.94
same,pIC50,DPPIV,5.60
N#CC1CCCN1C(=O)CNC(=O)c1ccnc2ccc(OCCCNC(=O)CCc3cn(CCC(NC(=O)c4ccc([18F])nc4)C(=O)NCCNC(=O)CN4CCN(CC(=O)O)CCN(CC(=O)O)CCN(CC(=O)O)CC4)nn3)cc12 (stereo not shown) [[^18F]Sri-07-56],% ID/g Blood (individual mouse),[1],10.48 % ID/g and 7.56 % ID/g
same,% ID/g Heart (individual mouse),[1],4.72 % ID/g and 3.07 % ID/g
same,% ID/g Liver (individual mouse),[1],2.82 % ID/g and 2.25 % ID/g
same,% ID/g Lung (individual mouse),[1],5.06 % ID/g and 3.66 % ID/g
same,% ID/g Mean Blood,[1],9.02 % ID/g
same,% ID/g Mean Heart,[1],3.90 % ID/g
same,% ID/g Mean Liver,[1],2.54 % ID/g
same,% ID/g Mean Lung,[1],4.36 % ID/g
same,% ID/g Mean Spleen,[1],1.91 % ID/g
same,% ID/g Spleen (individual mouse),[1],2.19 % ID/g and 1.64 % ID/g
same,Bladder % ID/g Mean,[2],0.99 % ID/g
same,Brain % ID/g Mean,[2],0.22 % ID/g
same,Fat % ID/g Mean,[2],0.89 % ID/g
same,Femur % ID/g Mean,[2],1.32 % ID/g
same,Kidney % ID/g Mean,[2],2.10 % ID/g
same,Large intestine % ID/g Mean,[2],0.93 % ID/g
same,Muscle % ID/g Mean,[2],0.90 % ID/g
same,Pancreas % ID/g Mean,[2],2.18 % ID/g
same,Salivary gland % ID/g Mean,[2],3.55 % ID/g
same,Small intestine % ID/g Mean,[2],1.73 % ID/g
same,Stomach % ID/g Mean,[2],0.86 % ID/g
same,Tumor % ID/g Mean,[2],1.78 % ID/g
same,Bladder % ID/g,[2]; individual mice,0.86 % ID/g and 1.12 % ID/g
same,Brain % ID/g,[2]; individual mice,0.28 % ID/g and 0.16 % ID/g
same,Fat % ID/g,[2]; individual mice,0.38 % ID/g and 1.40 % ID/g
same,Femur % ID/g,[2]; individual mice,1.63 % ID/g and 1.01 % ID/g
same,Kidney % ID/g,[2]; individual mice,2.24 % ID/g and 1.96 % ID/g
same,Large intestine % ID/g,[2]; individual mice,0.90 % ID/g and 0.95 % ID/g
same,Muscle % ID/g,[2]; individual mice,0.74 % ID/g and 1.06 % ID/g
same,Pancreas % ID/g,[2]; individual mice,2.39 % ID/g and 1.96 % ID/g
same,Salivery gland % ID/g,[2]; individual mice,4.40 % ID/g and 2.70 % ID/g
same,Small intestine % ID/g,[2]; individual mice,2.06 % ID/g and 1.40 % ID/g
same,Stomach % ID/g,[2]; individual mice,1.05 % ID/g and 0.67 % ID/g
same,Tumor % ID/g,[2]; individual mice,1.86 % ID/g and 1.70 % ID/g
